Columns and labels:
Experiment in all cases: biochemical
Set-up in all cases: DiscoverX KINOMEscan scanMAX competition binding panel, single concentration, percent of control; remaining binding: dose or concentration left out as unconfirmed
Conditions in all cases: KINOMEscan binding, percent of control; read-out: Table S4_SCANMAX REPORT - related to Fig. 1 / Percent Control
PRKCE = PRKCE (Homo sapiens, UniProt Q02156)
CDK8 = CDK8 (Homo sapiens, UniProt P49336)
GRK1 = GRK1 (Homo sapiens, UniProt Q15835)
FGFR3 = FGFR3 (Homo sapiens, UniProt P22607)
Chain of FGFR3 (P22607 whole entry): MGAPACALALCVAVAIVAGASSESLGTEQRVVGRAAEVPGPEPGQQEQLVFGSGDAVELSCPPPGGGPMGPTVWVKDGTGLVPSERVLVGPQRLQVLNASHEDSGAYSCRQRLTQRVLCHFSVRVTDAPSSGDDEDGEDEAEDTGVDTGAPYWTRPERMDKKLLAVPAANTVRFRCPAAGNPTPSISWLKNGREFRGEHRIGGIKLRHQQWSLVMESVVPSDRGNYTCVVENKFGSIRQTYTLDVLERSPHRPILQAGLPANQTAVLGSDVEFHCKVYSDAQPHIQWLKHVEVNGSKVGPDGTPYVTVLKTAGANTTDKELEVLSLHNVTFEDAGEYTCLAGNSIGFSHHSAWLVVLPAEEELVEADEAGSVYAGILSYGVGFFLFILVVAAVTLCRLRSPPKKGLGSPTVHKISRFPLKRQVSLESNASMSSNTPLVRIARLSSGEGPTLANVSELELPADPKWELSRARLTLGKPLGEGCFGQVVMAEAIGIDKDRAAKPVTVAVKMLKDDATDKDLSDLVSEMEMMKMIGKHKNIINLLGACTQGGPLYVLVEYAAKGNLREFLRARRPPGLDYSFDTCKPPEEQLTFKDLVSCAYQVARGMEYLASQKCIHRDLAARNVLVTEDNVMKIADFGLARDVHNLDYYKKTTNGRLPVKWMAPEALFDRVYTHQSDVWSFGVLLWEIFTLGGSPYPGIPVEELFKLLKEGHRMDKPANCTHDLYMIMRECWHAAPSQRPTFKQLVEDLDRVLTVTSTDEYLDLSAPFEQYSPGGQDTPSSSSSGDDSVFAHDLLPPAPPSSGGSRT

PIK3CD = PIK3CD (Homo sapiens, UniProt O00329)
PIK3CA(M1043I) = PIK3CA(M1043I) (Homo sapiens, UniProt P42336, M1043I)
Chain of PIK3CA(M1043I) (P42336 whole entry M1043I): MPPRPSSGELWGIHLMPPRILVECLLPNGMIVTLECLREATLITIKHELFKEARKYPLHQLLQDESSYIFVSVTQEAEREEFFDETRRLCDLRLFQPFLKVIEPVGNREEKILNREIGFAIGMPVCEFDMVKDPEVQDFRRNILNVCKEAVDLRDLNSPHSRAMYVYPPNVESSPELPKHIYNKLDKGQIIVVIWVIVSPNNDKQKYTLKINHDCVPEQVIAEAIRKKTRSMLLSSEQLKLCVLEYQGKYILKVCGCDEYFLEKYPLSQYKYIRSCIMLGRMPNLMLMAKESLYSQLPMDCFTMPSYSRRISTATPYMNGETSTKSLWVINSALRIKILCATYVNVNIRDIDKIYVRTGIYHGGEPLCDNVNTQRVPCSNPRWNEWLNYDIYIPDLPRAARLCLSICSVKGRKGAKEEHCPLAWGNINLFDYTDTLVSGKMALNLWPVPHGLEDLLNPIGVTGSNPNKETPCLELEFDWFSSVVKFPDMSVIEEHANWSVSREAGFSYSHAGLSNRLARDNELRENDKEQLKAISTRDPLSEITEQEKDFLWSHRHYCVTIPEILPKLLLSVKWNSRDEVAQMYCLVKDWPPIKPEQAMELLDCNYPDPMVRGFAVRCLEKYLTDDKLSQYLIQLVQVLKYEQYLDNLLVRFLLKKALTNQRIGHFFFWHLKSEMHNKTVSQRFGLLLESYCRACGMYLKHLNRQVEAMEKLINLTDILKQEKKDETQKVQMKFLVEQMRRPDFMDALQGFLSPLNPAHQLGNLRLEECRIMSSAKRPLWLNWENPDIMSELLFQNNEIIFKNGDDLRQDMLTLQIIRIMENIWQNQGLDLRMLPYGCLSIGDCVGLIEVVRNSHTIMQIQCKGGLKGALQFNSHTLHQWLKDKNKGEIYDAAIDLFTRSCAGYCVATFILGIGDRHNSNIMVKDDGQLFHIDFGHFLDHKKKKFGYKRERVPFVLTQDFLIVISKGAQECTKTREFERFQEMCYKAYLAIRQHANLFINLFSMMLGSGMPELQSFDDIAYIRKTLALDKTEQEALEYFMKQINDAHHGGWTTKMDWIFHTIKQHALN

SRPK2 = SRPK2 (Homo sapiens, UniProt P78362)
[1] = target: T1, JAK1(JH2domain-pseudokinase) (Homo sapiens, UniProt P23458)
T1 construct: JH2domain-pseudokinase

[2] = target: T2, ABL1(Q252H)-nonphosphorylated (Homo sapiens, UniProt P00519, Q252H)
T2 construct: nonphosphorylated

CAMK1G = CAMK1G (Homo sapiens, UniProt Q96NX5)
WEE2 = WEE2 (Homo sapiens, UniProt P0C1S8)
SGK = target: T3, SGK (Homo sapiens, UniProt O00141)
T3 construct: gene SGK1

AMPK-alpha2 = target: T4, AMPK-alpha2 (Homo sapiens, UniProt P54646)
T4 construct: gene PRKAA2
T4 sequence (P54646 whole entry): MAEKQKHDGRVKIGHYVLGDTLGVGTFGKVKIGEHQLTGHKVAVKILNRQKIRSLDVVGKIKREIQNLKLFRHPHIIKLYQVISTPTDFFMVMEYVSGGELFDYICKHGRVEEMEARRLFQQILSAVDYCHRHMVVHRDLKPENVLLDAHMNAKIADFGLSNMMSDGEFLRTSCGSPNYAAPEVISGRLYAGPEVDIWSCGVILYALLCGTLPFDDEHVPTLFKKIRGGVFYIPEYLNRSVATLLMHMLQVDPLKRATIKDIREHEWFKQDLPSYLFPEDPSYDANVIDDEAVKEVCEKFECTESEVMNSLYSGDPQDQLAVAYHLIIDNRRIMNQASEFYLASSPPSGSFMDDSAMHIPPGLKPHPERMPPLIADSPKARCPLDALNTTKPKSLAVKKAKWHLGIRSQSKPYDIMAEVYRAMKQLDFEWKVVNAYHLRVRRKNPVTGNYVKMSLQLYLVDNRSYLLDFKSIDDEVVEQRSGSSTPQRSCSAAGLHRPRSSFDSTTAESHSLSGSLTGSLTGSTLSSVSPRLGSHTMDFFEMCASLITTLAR

[3] = target: EGFR(L747-E749del, A750P) (Homo sapiens, UniProt P00533, A750P/DEL747-749)
EPHA6 = EPHA6 (Homo sapiens, UniProt Q9UF33)
Chain of EPHA6 (Q9UF33 whole entry): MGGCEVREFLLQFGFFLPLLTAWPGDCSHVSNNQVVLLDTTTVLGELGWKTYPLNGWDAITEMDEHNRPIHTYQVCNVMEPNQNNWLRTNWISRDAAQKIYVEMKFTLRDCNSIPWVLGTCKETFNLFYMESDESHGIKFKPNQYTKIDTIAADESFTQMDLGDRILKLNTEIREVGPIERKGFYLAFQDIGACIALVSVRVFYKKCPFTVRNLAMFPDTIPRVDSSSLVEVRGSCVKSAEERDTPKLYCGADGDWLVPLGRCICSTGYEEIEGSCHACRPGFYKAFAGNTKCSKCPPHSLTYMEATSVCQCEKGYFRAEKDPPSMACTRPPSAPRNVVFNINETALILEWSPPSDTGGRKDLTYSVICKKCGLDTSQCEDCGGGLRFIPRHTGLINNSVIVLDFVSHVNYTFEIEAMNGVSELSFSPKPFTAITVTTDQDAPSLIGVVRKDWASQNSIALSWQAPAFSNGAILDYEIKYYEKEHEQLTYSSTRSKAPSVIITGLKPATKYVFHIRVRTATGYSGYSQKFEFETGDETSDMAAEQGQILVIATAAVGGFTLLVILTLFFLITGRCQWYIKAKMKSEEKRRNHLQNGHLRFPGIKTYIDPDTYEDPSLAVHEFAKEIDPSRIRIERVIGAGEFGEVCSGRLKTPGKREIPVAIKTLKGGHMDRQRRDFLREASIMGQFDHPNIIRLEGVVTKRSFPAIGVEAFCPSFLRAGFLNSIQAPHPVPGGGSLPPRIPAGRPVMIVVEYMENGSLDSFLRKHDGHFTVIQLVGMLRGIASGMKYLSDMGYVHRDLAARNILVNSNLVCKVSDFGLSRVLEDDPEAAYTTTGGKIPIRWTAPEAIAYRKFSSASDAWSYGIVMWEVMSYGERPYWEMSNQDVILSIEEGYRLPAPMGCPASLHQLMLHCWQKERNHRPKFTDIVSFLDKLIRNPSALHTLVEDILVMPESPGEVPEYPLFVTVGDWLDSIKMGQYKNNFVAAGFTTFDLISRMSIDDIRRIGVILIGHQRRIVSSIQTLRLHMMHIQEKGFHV

AURKB = AURKB (Homo sapiens, UniProt Q96GD4)
PRKG2 = PRKG2 (Homo sapiens, UniProt Q13237)
Chain of PRKG2 (Q13237 whole entry): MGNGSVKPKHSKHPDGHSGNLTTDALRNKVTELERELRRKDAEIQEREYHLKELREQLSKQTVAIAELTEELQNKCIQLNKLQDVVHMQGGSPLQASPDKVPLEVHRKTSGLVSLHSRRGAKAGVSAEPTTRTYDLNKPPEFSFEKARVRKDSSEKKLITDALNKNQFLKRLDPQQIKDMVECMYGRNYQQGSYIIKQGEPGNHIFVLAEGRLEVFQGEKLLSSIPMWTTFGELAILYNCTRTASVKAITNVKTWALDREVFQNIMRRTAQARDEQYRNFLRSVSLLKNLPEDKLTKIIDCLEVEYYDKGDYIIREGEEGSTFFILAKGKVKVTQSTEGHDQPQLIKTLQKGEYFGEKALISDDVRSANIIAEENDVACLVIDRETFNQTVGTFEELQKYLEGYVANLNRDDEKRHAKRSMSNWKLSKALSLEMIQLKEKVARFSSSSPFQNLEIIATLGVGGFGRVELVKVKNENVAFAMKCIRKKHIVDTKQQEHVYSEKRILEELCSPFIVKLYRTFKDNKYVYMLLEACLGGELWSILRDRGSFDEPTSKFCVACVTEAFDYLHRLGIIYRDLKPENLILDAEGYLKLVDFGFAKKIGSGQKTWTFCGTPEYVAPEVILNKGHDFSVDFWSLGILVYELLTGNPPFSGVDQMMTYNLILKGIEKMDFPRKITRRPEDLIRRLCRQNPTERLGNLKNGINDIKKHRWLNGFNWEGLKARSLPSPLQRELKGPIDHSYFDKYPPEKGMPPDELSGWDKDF

AURKC = AURKC (Homo sapiens, UniProt Q9UQB9)
Chain of AURKC (Q9UQB9 whole entry): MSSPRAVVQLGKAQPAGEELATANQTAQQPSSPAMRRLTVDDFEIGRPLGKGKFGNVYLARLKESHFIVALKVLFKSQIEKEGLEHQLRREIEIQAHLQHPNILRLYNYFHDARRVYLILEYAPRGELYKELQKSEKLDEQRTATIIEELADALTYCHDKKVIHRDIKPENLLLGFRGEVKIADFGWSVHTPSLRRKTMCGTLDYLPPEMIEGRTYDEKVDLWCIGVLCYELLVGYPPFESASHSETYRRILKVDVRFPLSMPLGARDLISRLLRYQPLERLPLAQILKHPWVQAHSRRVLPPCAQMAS

Chain of CDK8 (P49336 whole entry): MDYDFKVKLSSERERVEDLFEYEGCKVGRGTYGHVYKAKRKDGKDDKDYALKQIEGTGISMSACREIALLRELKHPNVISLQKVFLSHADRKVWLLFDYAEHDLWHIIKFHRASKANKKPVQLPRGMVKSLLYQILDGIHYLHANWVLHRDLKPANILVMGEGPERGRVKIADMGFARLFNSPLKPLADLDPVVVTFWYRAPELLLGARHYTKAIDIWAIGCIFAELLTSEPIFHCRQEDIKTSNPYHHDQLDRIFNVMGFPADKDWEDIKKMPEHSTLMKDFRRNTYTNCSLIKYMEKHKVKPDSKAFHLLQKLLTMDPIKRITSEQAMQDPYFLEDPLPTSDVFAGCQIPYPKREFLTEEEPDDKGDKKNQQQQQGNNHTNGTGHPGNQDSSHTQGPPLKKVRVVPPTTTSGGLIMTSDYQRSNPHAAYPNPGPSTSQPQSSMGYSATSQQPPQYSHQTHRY

For `c1ccc2c(c1)Sc1ccccc1N2CCN1CCOCC1` [J54], the remaining binding (PRKCE) was 100%, the remaining binding (CDK8) was 100% and the remaining binding (GRK1) was 100%. For the same compound, the remaining binding (FGFR3) was 97%, the remaining binding (PIK3CD) was 100% and the remaining binding (PIK3CA(M1043I)) was 98%. The remaining binding (SRPK2) was 100%, the remaining binding [1] was 99% and the remaining binding [2] was 78%. It also gave a remaining binding (CAMK1G) of 100%, a remaining binding (WEE2) of 100% and a remaining binding (SGK) of 93%. For the same compound, the remaining binding (AMPK-alpha2) was 100%, the remaining binding [3] was 90% and the remaining binding (EPHA6) was 100%. The remaining binding (AURKB) was 100%, the remaining binding (PRKG2) was 99% and the remaining binding (AURKC) was 100%.
